# Read-outs that look alike come from different tables or passages of the source.
# Assays:
# P. aeruginosa 4990 = system: P. aeruginosa 4990
# Description: (§1) MBC is the lowest concentration of compound required to kill an organism. […] In the case of small colony variants, growth might not occur earlier than 48 hours.
# E. coli (K12) = system: E. coli (K12)
# Description: as §1
# P. aeruginosa 4961 = system: P. aeruginosa 4961
# Description: as §1
# E. coli (WT) = system: E. coli (WT)
# Description: as §1
# B. subtilis = assay: Minimum Bactericidal Concentration (MBC); format: cell-based
# Description: as §1
# S. aureus (USA300) [1] = assay: Minimum Bactericidal Concentration (MBC); format: cell-based
# Description: as §1
# S. aureus (8324-5) = assay: Minimum Bactericidal Concentration (MBC); format: cell-based
# Description: as §1
# S. aureus = assay: Minimum Bactericidal Concentration (MBC); format: cell-based; settings: UV-4B
# Description: as §1
# S. aureus (Col) = assay: Minimum Bactericidal Concentration (MBC); format: cell-based
# Description: as §1
# P. aeruginosa 4858 = assay: Minimum Bactericidal Concentration (MBC); format: cell-based
# Description: as §1
# [2] = system: Staphylococcus aureus USA300; settings: 200 mg/kg UV-4B orally TID for 10 days, from 3 days before IP challenge; water control 30%
# Description: The challenge inoculum included 6.13e4 cfu USA300+3% Hog mucin which causes bacteremia/sepsis within 24-72 h. […] The mice used were 6-8 week old female BALB/c mice in groups of 10. One group of 5 mice was also included to examine the potential toxicity of 3% hog mucin. Endpoint was day 10 post infection, death, or euthanasia Animals displaying severe illness as determined by >30% weight loss, extreme lethargy, or paralysis were euthanized. Observation included daily weight, health checks, and temperatures starting with the initiation of dosing until 10 days post challenge.
# S. aureus (USA300) [3] = assay: Minimum Inhibitory Concentration (MIC); format: cell-based
# Description: The MIC assay is a technique used to determine the lowest concentration of a particular antibiotic needed to inhibit visible growth of bacteria. In this method, two fold serial dilutions of the compound were prepared in broth media. An inoculum of overnight bacterial cultures will be prepared in the same broth medium. The serial dilution tubes will be inoculated with 0.025 ml of undiluted over-night culture (1:100), a 1×10-2 dilution (1:10,000), or a 1×10-4 dilution (1:1,000,000) of bacterial suspension. Results were recorded after 24 hour incubation at 35° C. without shaking by measuring OD600. The MIC is determined by the lowest concentration of compound where no growth is visible.
structure (smiles),measurement,setting,value
"COCCCCCCCCCN1C[C@H](O)[C@@H](O)[C@H](O)[C@H]1CO.Cl [UV-4B, hydrochloric acid salt of N-(9-Methoxynonyl)deoxynojirimycin]",MBC,P. aeruginosa 4990; UV-4B,>20 mg/mL
same,growth after re-inoculation on BHI agar,P. aeruginosa 4990; UV-4B 2.50 mg/ml,+
same,growth after re-inoculation on BHI agar,P. aeruginosa 4990; UV-4B 5.00 mg/ml,+
same,growth after re-inoculation on BHI agar,P. aeruginosa 4990; UV-4B 10 mg/ml,+
same,growth after re-inoculation on BHI agar,P. aeruginosa 4990; UV-4B 20 mg/ml,+
same,MBC,E. coli (K12); UV-4B,20 mg/mL
same,growth after re-inoculation on BHI agar,E. coli (K12); UV-4B 2.50 mg/ml,+
same,growth after re-inoculation on BHI agar,E. coli (K12); UV-4B 5.00 mg/ml,+
same,growth after re-inoculation on BHI agar,E. coli (K12); UV-4B 10 mg/ml,+
same,growth after re-inoculation on BHI agar,E. coli (K12); UV-4B 20 mg/ml,+
same,MBC,P. aeruginosa 4961; UV-4B,>20 mg/mL
same,growth after re-inoculation on BHI agar,P. aeruginosa 4961; UV-4B 2.50 mg/ml,+
same,growth after re-inoculation on BHI agar,P. aeruginosa 4961; UV-4B 5.00 mg/ml,+
same,growth after re-inoculation on BHI agar,P. aeruginosa 4961; UV-4B 10 mg/ml,+
same,growth after re-inoculation on BHI agar,P. aeruginosa 4961; UV-4B 20 mg/ml,+
same,MBC,E. coli (WT); UV-4B,10 mg/mL
same,growth after re-inoculation on BHI agar,E. coli (WT); UV-4B 2.50 mg/ml,+
same,growth after re-inoculation on BHI agar,E. coli (WT); UV-4B 5.00 mg/ml,+
same,growth after re-inoculation on BHI agar,E. coli (WT); UV-4B 10 mg/ml,−
same,MBC,B. subtilis; UV-4B,>10 mg/mL
same,growth after re-inoculation on BHI agar,B. subtilis; UV-4B 2.50 mg/ml,+
same,growth after re-inoculation on BHI agar,B. subtilis; UV-4B 5.00 mg/ml,+
same,growth after re-inoculation on BHI agar,B. subtilis; UV-4B 10 mg/ml,+
same,MBC,S. aureus (USA300) [1]; UV-4B,>20 mg/mL
same,growth after re-inoculation on BHI agar,S. aureus (USA300) [1]; UV-4B 2.50 mg/ml,+
same,growth after re-inoculation on BHI agar,S. aureus (USA300) [1]; UV-4B 5.00 mg/ml,+
same,growth after re-inoculation on BHI agar,S. aureus (USA300) [1]; UV-4B 10 mg/ml,+
same,growth after re-inoculation on BHI agar,S. aureus (USA300) [1]; UV-4B 20 mg/ml,+
same,growth after re-inoculation on BHI agar,S. aureus (8324-5); UV-4B 2.50 mg/ml,+
same,growth after re-inoculation on BHI agar,S. aureus (8324-5); UV-4B 5.00 mg/ml,+
same,growth after re-inoculation on BHI agar,S. aureus (8324-5); UV-4B 10 mg/ml,+
same,growth after re-inoculation on BHI agar,S. aureus (8324-5); UV-4B 20 mg/ml,−
same,MBC,S. aureus,20 mg/mL
same,MBC,S. aureus (Col); UV-4B,2.5 mg/mL
same,growth after re-inoculation on BHI agar,S. aureus (Col); UV-4B 2.50 mg/ml,−
same,growth after re-inoculation on BHI agar,S. aureus (Col); UV-4B 5.00 mg/ml,−
same,growth after re-inoculation on BHI agar,S. aureus (Col); UV-4B 10 mg/ml,−
same,MBC,P. aeruginosa 4858; UV-4B,>20 mg/mL
same,growth after re-inoculation on BHI agar,P. aeruginosa 4858; UV-4B 2.50 mg/ml,+
same,growth after re-inoculation on BHI agar,P. aeruginosa 4858; UV-4B 5.00 mg/ml,+
same,growth after re-inoculation on BHI agar,P. aeruginosa 4858; UV-4B 10 mg/ml,+
same,growth after re-inoculation on BHI agar,P. aeruginosa 4858; UV-4B 20 mg/ml,+
same,survival,[2],80%
same,MIC,"S. aureus (USA300) [3]; Table 3, two independent tests",2.5 mg/mL
same,MIC,S. aureus (USA300) [3]; Table 4,0.0625 mg/mL
same,growth (OD600),"S. aureus (USA300) [3]; Table 4, 0.02 mg/ml",+ (+ OD600 <0.05)
same,growth (OD600),"S. aureus (USA300) [3]; Table 4, 0.04 mg/ml",+ (+ OD600 <0.05)
same,growth (OD600),"S. aureus (USA300) [3]; Table 4, 0.08 mg/ml",+ (+ OD600 <0.05)
same,growth (OD600),"S. aureus (USA300) [3]; Table 4, 0.16 mg/ml",+ (+ OD600 <0.05)
same,growth (OD600),"S. aureus (USA300) [3]; Table 4, 0.31 mg/ml",+ (+ OD600 <0.05)
same,growth (OD600),"S. aureus (USA300) [3]; Table 4, 0.63 mg/ml",− (− OD600 >0.05)
same,growth (OD600),"S. aureus (USA300) [3]; Table 4, 2.50 mg/ml",− (− OD600 >0.05)
same,growth (OD600),"S. aureus (USA300) [3]; Table 4, 5 mg/ml",− (− OD600 >0.05)
same,growth (OD600),"S. aureus (USA300) [3]; Table 4, 10 mg/ml",− (− OD600 >0.05)
same,growth (OD600),"S. aureus (USA300) [3]; Table 4, 20 mg/ml",− (− OD600 >0.05)
same,visible growth,S. aureus (USA300) [3]; UV-4B 0.04 mg/ml,+
same,visible growth,S. aureus (USA300) [3]; UV-4B 0.08 mg/ml,+
same,visible growth,S. aureus (USA300) [3]; UV-4B 0.16 mg/ml,+
same,visible growth,S. aureus (USA300) [3]; UV-4B 0.31 mg/ml,+
same,visible growth,S. aureus (USA300) [3]; UV-4B 0.63 mg/ml,+
same,visible growth,S. aureus (USA300) [3]; UV-4B 2.50 mg/ml,−
same,visible growth,S. aureus (USA300) [3]; UV-4B 5 mg/ml,−
same,visible growth,S. aureus (USA300) [3]; UV-4B 10 mg/ml,−
same,visible growth,S. aureus (USA300) [3]; UV-4B 20 mg/ml,−
